Patent US20070203118A1, “SUBSTITUTED TETRAHYDROISOQUINOLINES USED IN THE FORM OF MMP INHIBITORS, METHOD FOR THE PRODUCTION AND USE THEREOF IN THE FORM OF DRUGS” (SANOFI-AVENTIS DEUTSCHLAND GMBH, priority 2004, published 2007)
pIC50: −log10 of the molar value.

What was measured:
Type in all cases: biochemical
[1] = target: T1, neutrophil collagenase (MMP-8) (Homo sapiens, UniProt P22894); experiment: Enzymatic activity of the catalytic domain of neutrophil collagenase (MMP-8), fluorogenic substrate
T1 construct: Catalytic Domain of Human Stromelysin (MMP-3) and of Neutrophil Collagenase (MMP-8); made in house
Protocol: Preparation and Determination of the Enzymatic Activity of the Catalytic Domain of Human Stromelysin (MMP-3) and of Neutrophil Collagenase (MMP-8)
The two enzymes stromelysin (MMP-3) and neutrophil collagenase (MMP-8) were prepared by the method of Ye et al. (Biochemistry; 31 (1992) pages 11 231-11 235). The enzymic activity or the effect of the enzyme inhibitor was measured by incubating 10 μl of enzyme solution with 10 μl of a 3% strength (v/v) buffered dimethyl sulfoxide solution which contained the enzyme inhibitor where appropriate, for 15 minutes. After addition of 10 μl of a 3% strength (v/v) aqueous dimethyl sulfoxide solution which contained 1 mmol/l of the substrate, the enzymic reaction was followed by fluorescence spectroscopy (328 nm (ex)/393 nm(em)). The enzymic activity is presented as increase in extinction/minute.
The IC50 values listed in Table 4 were determined as the inhibitor concentrations leading in each case to 50% inhibition of the enzyme. The buffer solution contained 0.05% Brij (Sigma, Deisenhofen, Germany) and 0.1 mol/l Tris/HCl, 0.1 mol/l NaCl, 0.01 mol/l CaCl2 and 0.1 mol/l piperazine-N,N′-bis[2-ethanesulfonic acid] (pH=7.5).
The MMP-3 enzyme solution contained 2.3 μg/ml and the MMP-8 enzyme solution 0.6 μg/ml of one of the enzyme domains prepared by the method of Ye et al. The substrate solution contained 1 mmol/l of the fluorogenic substrate (7-methoxycoumarin-4-yl)acetyl-Pro-Leu-Gly-Leu-3-(2′,4′-dinitrophenyl)-L-2,3-diaminopropionyl-Ala-Arg-NH2 (Bachem, Heidelberg, Germany).

[2] = target: T2, catalytic domain of human gelatinase-A (MMP-2) (Homo sapiens, UniProt P08253); experiment: Enzymatic activity of the catalytic domain of human gelatinase-A (MMP-2), fluorogenic substrate
T2 construct: Determination of the Enzymatic Activity of the Catalytic Domain of Human Gelatinase-A (MMP-2); purchased INVITEK, Berlin
T2 sequence (P08253 110-660): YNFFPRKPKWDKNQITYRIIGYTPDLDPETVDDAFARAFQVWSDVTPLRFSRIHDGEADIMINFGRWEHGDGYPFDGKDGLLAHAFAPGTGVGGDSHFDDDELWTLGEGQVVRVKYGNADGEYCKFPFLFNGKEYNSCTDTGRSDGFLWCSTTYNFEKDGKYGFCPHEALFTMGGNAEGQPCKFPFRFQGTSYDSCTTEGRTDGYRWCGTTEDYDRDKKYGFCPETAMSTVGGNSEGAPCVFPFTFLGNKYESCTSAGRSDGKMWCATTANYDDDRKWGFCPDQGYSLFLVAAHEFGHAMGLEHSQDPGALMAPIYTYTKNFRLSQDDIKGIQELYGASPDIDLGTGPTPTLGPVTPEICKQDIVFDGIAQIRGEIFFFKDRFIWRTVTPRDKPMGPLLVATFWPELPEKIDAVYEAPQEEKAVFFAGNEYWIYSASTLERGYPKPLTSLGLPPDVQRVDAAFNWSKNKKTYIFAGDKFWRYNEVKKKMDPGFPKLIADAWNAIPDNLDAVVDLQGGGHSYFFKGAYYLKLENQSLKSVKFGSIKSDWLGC
Protocol: Determination of the Enzymatic Activity of the Catalytic Domain of Human Gelatinase-A (MMP-2)
(§1) Activation of the proenzyme: 2 parts by volume of proenzyme were incubated with 1 part by volume of APMA solution at 37° C. for 0.5 hours. The APMA solution was prepared from a 10 mmol/l p-aminophenylmercuric acetate solution in 0.1 mmol/l NaOH by dilution with 3 parts by volume of Tris/HCl buffer pH 7.5 (see below). The pH was adjusted to between 7.0 and 7.5 by adding 1 mmol/l HCl. After activation of the enzyme it was diluted with the Tris/HCl buffer to a concentration of 0.83 μg/ml.
(§2) The enzymic activity was measured by incubating 10 μl of enzyme solution with 10 μl of a 3% strength (v/v) buffered dimethyl sulfoxide solution (reaction 1) for 15 minutes. The enzyme inhibitor activity was measured by incubating 10 μl of enzyme solution with 10 μl of a 3% strength (v/v) buffered dimethyl sulfoxide solution which contained the enzyme inhibitor (reaction 2).
The enzymic reaction both in the case of reaction 1 and in the case of reaction 2 was followed after addition of 10 μl of a 3% strength (v/v) aqueous dimethyl sulfoxide solution which contained 0.3 mmol/l of the substrate by fluorescence spectroscopy (328 nm (extinction)/393 nm (emission)).
(§3) The enzymic activity has been presented as increase in extinction/minute.
(§4) The effect of the inhibitor was calculated as percentage inhibition by the following formula: % inhibition=100−[(increase in extinction/minute in reaction 2)/(increase in extinction/minute in reaction 1)×100].
(§5) The IC50, which is the concentration of inhibitor which is necessary for 50% inhibition of the enzymic activity, was determined graphically by plotting the percentage inhibitions at various inhibitor concentrations.
(§6) The buffer solution contained 0.05% Brij (Sigma, Deisenhofen, Germany) and 0.1 mol/l Tris/HCl, 0.1 mol/l NaCl, 0.01 mol/l CaCl2 (pH=7.5). The enzyme solution contained 10.83 μg/ml of the enzyme domain. The substrate solution contained 0.3 mmol/l of the fluorogenic substrate (7-methoxycoumarin-4-yl)acetyl-Pro-Leu-Gly-Leu-3-(2′,4′-dinitrophenyl)-L-2,3-diaminopropionyl-Ala-Arg-NH2 (Bachem, Heidelberg, Germany).

[3] = target: T3, catalytic domain of human gelatinase-A (MMP-9) (Homo sapiens, UniProt P14780); experiment: Enzymatic activity of the catalytic domain of human gelatinase (MMP-9), fluorogenic substrate; details: for MMP9:MMP1, selectivity of inhibition of MMP-9 in relation to MMP-1: ratio of the IC50 values of Table 4
T3 construct: Determination of the Enzymatic Activity of the Catalytic Domain of Human Gelatinase-A (MMP-9); purchased Roche, Mannheim
Protocol: Determination of the Enzymatic Activity of the Catalytic Domain of Human Gelatinase-A (MMP-9)
Activation of the proenzyme:
as §1, with “2” for “Activation of the proenzyme: 2”, “4” for “0.5”, “4.2 mU/ml.” for “0.83 μg/ml.”
as §2
The enzymic reaction both in the case of reaction 1 and in the case of reaction 2 was followed after addition of 10 μl of a 3% strength (v/v) aqueous dimethyl sulfoxide solution which contained 0.15 mmol/l of the substrate by fluorescence spectroscopy (328 nm (extinction)/393 nm (emission)).
as §3, §4, §5
as §6, with “4.2 mU/ml” for “10.83 μg/ml”, “0.15” for “0.3”

T3 sequence (P14780 107-707 limits assumed): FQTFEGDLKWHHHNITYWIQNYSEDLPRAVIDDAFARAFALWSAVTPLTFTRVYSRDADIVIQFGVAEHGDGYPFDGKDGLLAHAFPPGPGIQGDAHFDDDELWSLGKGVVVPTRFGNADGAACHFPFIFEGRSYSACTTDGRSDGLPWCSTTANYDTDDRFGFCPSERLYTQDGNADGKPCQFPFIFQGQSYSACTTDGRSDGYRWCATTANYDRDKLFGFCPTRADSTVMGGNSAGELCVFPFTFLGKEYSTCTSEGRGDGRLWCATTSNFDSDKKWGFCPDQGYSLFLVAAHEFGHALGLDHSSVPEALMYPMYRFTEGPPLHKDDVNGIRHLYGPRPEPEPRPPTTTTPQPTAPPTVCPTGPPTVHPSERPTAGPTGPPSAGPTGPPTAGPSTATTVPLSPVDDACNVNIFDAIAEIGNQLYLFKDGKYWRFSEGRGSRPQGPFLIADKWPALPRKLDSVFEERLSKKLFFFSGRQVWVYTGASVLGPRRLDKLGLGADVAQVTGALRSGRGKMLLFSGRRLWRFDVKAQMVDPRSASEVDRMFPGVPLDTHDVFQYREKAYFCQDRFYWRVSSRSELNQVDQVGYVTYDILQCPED
T1 sequence (P22894 100-262 limits assumed): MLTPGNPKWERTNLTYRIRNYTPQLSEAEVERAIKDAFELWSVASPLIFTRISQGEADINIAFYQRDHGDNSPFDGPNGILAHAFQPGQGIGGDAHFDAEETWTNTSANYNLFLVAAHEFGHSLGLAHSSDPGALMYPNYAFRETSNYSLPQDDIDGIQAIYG

With “2-{2-[4-(4-fluorophenoxy)phenyl]ethanesulfonyl}-1,2,3,4-tetrahydroisoquinoline-1-hydroxycarboxamide [Compound 20]” the pIC50 [1] was 8.66, the pIC50 [2] was 8.70 and the pIC50 [3] was 8.89. The “MMP9:MMP1, selectivity of inhibition of MMP-9 in relation to MMP-1” value [3] was 231.

`O=C(NO)[C@H]1c2ccccc2CCN1S(=O)(=O)c1ccc(Oc2ccc(Cl)cc2)cc1` [Compound 9] was tested, and the pIC50 [1] was 8.66, the pIC50 [2] was 8.70 and the pIC50 [3] was 9.00. For the same molecule, the “MMP9:MMP1, selectivity of inhibition of MMP-9 in relation to MMP-1” value [3] was 2.

`O=C(NO)[C@H]1c2ccccc2CCN1S(=O)(=O)c1ccc(Oc2ccncc2)cc1` [Compound 11] showed a pIC50 [1] of 8.52, a pIC50 [2] of 8.64 and a pIC50 [3] of 8.74. For the same molecule, the “MMP9:MMP1, selectivity of inhibition of MMP-9 in relation to MMP-1” value [3] was 78.

Work on `COc1cc2c(cc1OC)[C@@H](C(=O)NO)N(S(=O)(=O)c1ccc(-c3ccc(Cl)cc3)cc1)CC2` [Compound 15] yielded a pIC50 [1] of 8.70, a pIC50 [2] of 9.00 and a pIC50 [3] of 9.00. The “MMP9:MMP1, selectivity of inhibition of MMP-9 in relation to MMP-1” value [3] was 300.

With `COc1ccc(F)c2c1[C@H](C(=O)NO)N(S(=O)(=O)c1ccc(-c3ccc(Cl)cc3)cc1)CC2` [Compound 18] the pIC50 [1] was 7.85, the pIC50 [2] was 8.35 and the pIC50 [3] was 7.22. The “MMP9:MMP1, selectivity of inhibition of MMP-9 in relation to MMP-1” value [3] was 67.

In the case of `O=C(NO)[C@H]1c2ccccc2CCN1S(=O)(=O)c1ccc(Oc2ccc(C(F)(F)F)cc2)cc1` [Compound 21, (R)-2-[4-(4-trifluoromethylphenoxy)benzenesulfonyl]-1,2,3,4-tetrahydro-isoquinoline-1-hydroxycarboxamide], the pIC50 [1] was 8.49, the pIC50 [2] was 8.66 and the pIC50 [3] was 8.49. The “MMP9:MMP1, selectivity of inhibition of MMP-9 in relation to MMP-1” value [3] was 313.

With `O=C(NO)[C@H]1c2ccccc2CCN1S(=O)(=O)c1ccc(Oc2ccc(OCC(F)(F)F)cc2)cc1` [Compound 22] the pIC50 [1] was 6.96, the pIC50 [2] was 7.60 and the pIC50 [3] was 7.74. For the same molecule, the “MMP9:MMP1, selectivity of inhibition of MMP-9 in relation to MMP-1” value [3] was 89.

`O=C(NO)[C@H]1c2ccccc2CCN1S(=O)(=O)c1ccc(Oc2ccc(OC(F)(F)F)cc2)nc1` [Compound 43, (R)-2-[6-(4-trifluoromethoxyphenoxy)pyridine-3-sulfonyl]-1,2,3,4-tetrahydro-isoquinoline-1-hydroxycarboxamide] showed a pIC50 [1] of 7.52, a pIC50 [2] of 7.64 and a pIC50 [3] of 7.70. For the same molecule, the “MMP9:MMP1, selectivity of inhibition of MMP-9 in relation to MMP-1” value [3] was over 500.

Molecule `O=C(NO)[C@H]1c2ccccc2CCN1S(=O)(=O)c1ccc(Oc2ccc(Cl)cc2)nc1` [Compound 45, (R)-2-[6-(4-chlorophenoxy)pyridine-3-sulfonyl]-1,2,3,4-tetrahydroisoquinoline-1-hydroxycarboxamide] has a pIC50 [1] of 8.05, a pIC50 [2] of 8.70 and a pIC50 [3] of 8.52. The “MMP9:MMP1, selectivity of inhibition of MMP-9 in relation to MMP-1” value [3] was 667.

For “(R)-4-(1-hydroxycarbamoyl-3,4-dihydro-1H-isoquinoline-2-sulfonyl)phenyl benzoate [Compound 48]”, the pIC50 [1] was 8.40, the pIC50 [2] was 8.70 and the pIC50 [3] was 8.70.
